According to patent publication US5672710A, “Sulfides, sulfoxides and sulfones disubstituted with a tetrahydronaphthalenyl, chromanyl, thiochromanyl or tetrahydroquinolinyl and substituted phenyl or heteroaryl group, having retinoid-like biological activity” (priority 1995, dated 1997):

Molecular target: T1, RXRγ (Mus musculus, UniProt P28705)
T1 construct: expressed in transfected cells; host or cells: CV1
T1 sequence (P28705 1-463): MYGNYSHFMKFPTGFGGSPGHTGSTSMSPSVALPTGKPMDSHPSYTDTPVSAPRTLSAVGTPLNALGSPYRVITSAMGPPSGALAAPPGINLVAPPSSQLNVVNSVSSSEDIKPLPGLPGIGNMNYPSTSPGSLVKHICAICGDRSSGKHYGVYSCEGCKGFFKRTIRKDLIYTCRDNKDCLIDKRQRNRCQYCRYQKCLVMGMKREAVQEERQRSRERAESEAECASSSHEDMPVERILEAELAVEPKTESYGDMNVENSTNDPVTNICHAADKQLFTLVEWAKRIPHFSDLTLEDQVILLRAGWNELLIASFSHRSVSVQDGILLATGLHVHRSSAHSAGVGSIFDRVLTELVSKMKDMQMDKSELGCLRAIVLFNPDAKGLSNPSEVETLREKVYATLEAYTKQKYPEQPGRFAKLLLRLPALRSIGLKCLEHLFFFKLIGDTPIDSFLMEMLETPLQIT
Experiment: Holoreceptor transactivation assay, RXRγ
Type: cell-based
Settings: CV1 cells; for EC50: 36 hours; for Emax: CV-1, relative to all trans retinoic acid, read-out: Transactivation Assay Efficacy (% of RA activity), RXRγ
Source text: A holoreceptor transactivation assay and a ligand binding assay which measure the ability of the compounds of the invention to bind to the several retinoid receptor subtypes, respectively, are described in published PCT Application No. WO W093/11755 (particularly on pages 30-33 and 37-41) published on Jun. 24, 1993, the specification of which is also incorporated herein by reference. A description of the holoreceptor transactivation assay is also provided below.
CV1 cells (5,000 cells/well) were transfected with an RAR reporter plasmid MTV-TREp-LUC (50 ng) along with one of the […] expression vectors (10 ng) in an automated 96-well format by the calcium phosphate procedure of Heyman et al. Cell 68, 397-406. (8). For RXRα and RXR.GAMMA. transactivation assays, an RXR-responsive reporter plasmid CRBPII-tk-LUC (50 ng) along with the appropriate RXRexpression vectors (10 ng) was used substantially as described by Heyman et al. above, and Allegretto et al. J. Biol. Chem. 268, 26625-26633. For RXRβ transactivation assays, an RXR-responsive reporter plasmid CPRE-tk-LUC ([…]) along with RXRβ expression vector ([…]) was used as described in above. These reporters contain DRI elements from human CRBPII and certain DRI elements from promoter, respectively. (see Mangelsdorf et al. The Retinoids: Biology, Chemistry and Medicine, pp 319-349, Raven Press Ltd., New York and Heyman et al., cited above) (1, 8). A β-galactosidase (50 ng) expression vector was used as an internal control in the transfections to normalize for variations in transfection efficiency. The cells were transfected in triplicate for 6 hours, followed by incubation with retinoids for 36 hours, and the extracts were assayed for luciferase and β-galactosidase activities. The detailed experimental procedure for holoreceptor transactivations has been described in Heyman et al. above, and Allegretto et al. cited above. The results obtained in this assay in connection with examplary compounds in accordance with the present invention are expressed in EC50 numbers, as they are also in the chimeric receptor transactivation assay. The Heyman et al. Cell 68, 397-406, Allegretto et al. J. Biol. Chem. 268, 26625-26633, and Mangelsdorf et al. The Retinoids: Biology, Chemistry and Medicine, pp 319-349, Raven Press Ltd., New York, are expressly incorporated herein by reference. The results of ligand binding assay are expressed in Kd numbers. (See Cheng et al. Biochemical Pharmacology Vol. 22 pp 3099-3108, expressly incorporated herein by reference.)

`Cc1cc2c(cc1Sc1ncc(C(=O)O)s1)C(C)(C)CCC2(C)C` [Compound 15, 2-(5,6,7,8-Tetrahydro-3,5,5,8,8-pentamethyl-2-naphthylthio)-5-thiazolecarboxylic acid] gave an EC50 of 1900 nM and an Emax of 70%.
With `Cc1cc2c(cc1Sc1ccc(C(=O)O)cc1)C(C)(C)CCC2(C)C` [Compound 7, 4-(5,6,7,8-tetrahydro-3,5,5,8,8-pentamethyl-2-Daphthylthio)benzoic acid] the EC50 was 230 nM and the Emax was 67%.
`Cc1cc2c(cc1[S+]([O-])c1ccc(C(=O)O)cc1)C(C)(C)CCC2(C)C` (stereo not shown) [Compound 9, 4-(5,6,7,8-tetrahydro-3,5,5,8,8-pentamethyl-2-naphthylsulfoxy)benzoic acid] gave an EC50 of 1600 nM and an Emax of 28%.
For `CC1(C)CCC(C)(C)c2cc(S(=O)(=O)c3ccc(C(=O)O)cc3)ccc21` [Compound 5, 4-(5,6,7,8-tetrahydro-5,5,8,8-tetramethyl-2-naphthylsulfonyl)benzoic acid], the EC50 was 2600 nM and the Emax was 26%.
`Cc1cc2c(cc1Sc1ccc(C(=O)O)cn1)C(C)(C)CCC2(C)C` [Compound 13] gave an EC50 of 42 nM and an Emax of 85%.
